By solubility is commonly meant the concentration that dissolves in the medium under given conditions. Read a high solubility as a readily soluble substance. The term IC50 denotes the point on the concentration scale where inhibition reaches its midpoint.

Values after ≈ are worked out from the molar mass of the structure shown.

For three molecules, Stability, solubility and IC50 results are on record in ChEMBL document CHEMBL1165953, “Synthesis and biological evaluation of 4(5)-(6-methylpyridin-2-yl)imidazoles and -pyrazoles as transforming growth factor-beta type 1 receptor kinase inhibitors” (Bioorg Med Chem, 2010).

The nature of data set [1]: Metabolic stability assessed as 3-((4-(2-hydroxyquinoxalin- 6-yl)-5-(6-methylpyridin-2-yl)-1H-imidazol-2-yl)methyl)benzamide or 3-((4-(3-hydroxyquinoxalin-6-yl)-5-(6-methylpyridin-2-yl)- 1H-imidazol-2-yl)methyl)benzamide) levels at 120 uM by HPLC analysis in presence human recombinant CYP2C19. Format: ADME. The settings on record: recombinant enzyme.
Data set [2] in a line: Metabolic stability assessed as 3-((4-(2-hydroxyquinoxalin- 6-yl)-5-(6-methylpyridin-2-yl)-1H-imidazol-2-yl)methyl)benzamide or 3-((4-(3-hydroxyquinoxalin-6-yl)-5-(6-methylpyridin-2-yl)- 1H-imidazol-2-yl)methyl)benzamide) levels at 120 uM by HPLC analysis in presence human recombinant CYP2C8. The settings on record: recombinant enzyme. Format: ADME.
The nature of data set [3]: Metabolic stability assessed as 3-((4-(2-hydroxyquinoxalin- 6-yl)-5-(6-methylpyridin-2-yl)-1H-imidazol-2-yl)methyl)benzamide or 3-((4-(3-hydroxyquinoxalin-6-yl)-5-(6-methylpyridin-2-yl)- 1H-imidazol-2-yl)methyl)benzamide) levels at 120 uM by HPLC analysis in presence human recombinant CYP2D6. Format: ADME. Conditions: recombinant enzyme.
Data set [4] in a line: Metabolic stability assessed as 3-((4-(2-hydroxyquinoxalin- 6-yl)-5-(6-methylpyridin-2-yl)-1H-imidazol-2-yl)methyl)benzamide or 3-((4-(3-hydroxyquinoxalin-6-yl)-5-(6-methylpyridin-2-yl)- 1H-imidazol-2-yl)methyl)benzamide) levels at 120 uM by HPLC analysis in presence human recombinant CYP3A4. Format: ADME. The settings on record: recombinant enzyme.
A short description of data set [5]: Aqueous solubility in buffer solution at pH 1.2. Format: physicochemical.
The target in data set [6] is Mitogen-activated protein kinase 14 (Homo sapiens, UniProt Q16539).
Data set [7] addresses Platelet-derived growth factor receptor alpha (Homo sapiens, UniProt P16234). The data set is described as follows: Inhibition of PDGFRalpha.
Data set [8] in a line: Metabolic stability assessed as 3-((4-(2-hydroxyquinolin-6-yl)-5-(6-methylpyridin-2-yl)-1H-imidazol-2-yl)methyl)benzamide or 3-((4-(3-hydroxyquinolin-6-yl)-5-(6-methylpyridin-2-yl)-1H-imidazol-2-yl)methyl)benzamide levels at 120 uM by HPLC analysis in presence human recombinant CYP3A4. The settings on record: recombinant enzyme. The class given is ADME.
Data set [9] can be described thus: Metabolic stability assessed as 3-((4-(2-hydroxyquinolin-6-yl)-5-(6-methylpyridin-2-yl)-1H-imidazol-2-yl)methyl)benzamide or 3-((4-(3-hydroxyquinolin-6-yl)-5-(6-methylpyridin-2-yl)-1H-imidazol-2-yl)methyl)benzamide levels at 120 uM by HPLC analysis in presence human recombinant CYP2C8. Format: ADME. Conditions: recombinant enzyme.
Data set [10] has as its target Vascular endothelial growth factor receptor 1 (Homo sapiens, UniProt P17948). The experiment in a line: Inhibition of VEGFR1.
Data set [11] deals with Vascular endothelial growth factor receptor 3 (Homo sapiens, UniProt P35916). The data set is described as follows: Inhibition of VEGFR3.
Data set [12] can be described thus: Metabolic stability assessed as 3-((4-(2-hydroxyquinolin-6-yl)-5-(6-methylpyridin-2-yl)-1H-imidazol-2-yl)methyl)benzamide or 3-((4-(3-hydroxyquinolin-6-yl)-5-(6-methylpyridin-2-yl)-1H-imidazol-2-yl)methyl)benzamide levels at 120 uM by HPLC analysis in presence human recombinant CYP2C19. Format: ADME. The settings on record: recombinant enzyme.
The target of data set [13] is Vascular endothelial growth factor receptor 2 (Homo sapiens, UniProt P35968). The experiment in a line: Inhibition of VEGFR2.
A further data set has as its target T1, TGF-beta receptor type-1 (Homo sapiens, UniProt P36897).
T1 sequence (P36897 whole entry): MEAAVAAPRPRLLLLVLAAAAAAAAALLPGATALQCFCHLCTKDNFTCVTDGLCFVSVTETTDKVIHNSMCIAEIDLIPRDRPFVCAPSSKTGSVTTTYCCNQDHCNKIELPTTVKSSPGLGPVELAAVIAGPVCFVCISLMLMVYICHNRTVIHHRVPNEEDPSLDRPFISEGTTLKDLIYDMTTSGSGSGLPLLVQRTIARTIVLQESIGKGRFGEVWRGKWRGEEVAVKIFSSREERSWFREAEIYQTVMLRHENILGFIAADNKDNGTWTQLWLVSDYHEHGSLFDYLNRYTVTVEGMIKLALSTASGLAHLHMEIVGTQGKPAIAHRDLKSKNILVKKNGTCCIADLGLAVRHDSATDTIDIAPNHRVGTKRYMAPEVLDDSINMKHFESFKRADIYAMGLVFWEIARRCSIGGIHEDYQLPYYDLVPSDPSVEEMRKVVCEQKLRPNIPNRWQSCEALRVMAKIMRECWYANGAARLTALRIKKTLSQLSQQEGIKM

Data set [14] addresses T2, Serine/threonine-protein kinase D1 (Homo sapiens, UniProt Q15139).
T2 sequence (Q15139 whole entry): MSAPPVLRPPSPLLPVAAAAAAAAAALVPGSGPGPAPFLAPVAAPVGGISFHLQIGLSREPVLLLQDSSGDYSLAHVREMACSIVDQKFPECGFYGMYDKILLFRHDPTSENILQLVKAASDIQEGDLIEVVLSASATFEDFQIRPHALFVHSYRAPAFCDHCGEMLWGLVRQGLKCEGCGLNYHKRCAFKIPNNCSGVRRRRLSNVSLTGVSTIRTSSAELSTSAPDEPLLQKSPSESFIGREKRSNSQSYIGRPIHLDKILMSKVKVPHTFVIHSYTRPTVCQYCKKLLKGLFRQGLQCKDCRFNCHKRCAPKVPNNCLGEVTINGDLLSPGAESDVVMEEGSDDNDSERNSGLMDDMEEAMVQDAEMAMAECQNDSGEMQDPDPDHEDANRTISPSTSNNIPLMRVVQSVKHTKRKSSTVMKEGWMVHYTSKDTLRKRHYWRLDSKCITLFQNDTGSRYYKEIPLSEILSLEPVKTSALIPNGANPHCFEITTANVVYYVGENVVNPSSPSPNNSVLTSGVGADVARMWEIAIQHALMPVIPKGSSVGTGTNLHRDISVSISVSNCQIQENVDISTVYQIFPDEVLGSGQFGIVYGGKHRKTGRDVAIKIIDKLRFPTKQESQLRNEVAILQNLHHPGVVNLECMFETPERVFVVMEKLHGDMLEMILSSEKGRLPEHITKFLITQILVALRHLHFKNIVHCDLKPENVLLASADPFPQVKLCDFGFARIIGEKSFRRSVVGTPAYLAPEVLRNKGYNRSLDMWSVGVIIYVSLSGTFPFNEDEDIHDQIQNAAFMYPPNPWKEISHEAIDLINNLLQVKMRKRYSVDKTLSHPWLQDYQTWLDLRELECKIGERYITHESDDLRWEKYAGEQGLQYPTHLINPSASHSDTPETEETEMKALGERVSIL
The experiment in a line: Inhibition of PKCmu.

Sequence of Vascular endothelial growth factor receptor 1 (P17948 whole entry): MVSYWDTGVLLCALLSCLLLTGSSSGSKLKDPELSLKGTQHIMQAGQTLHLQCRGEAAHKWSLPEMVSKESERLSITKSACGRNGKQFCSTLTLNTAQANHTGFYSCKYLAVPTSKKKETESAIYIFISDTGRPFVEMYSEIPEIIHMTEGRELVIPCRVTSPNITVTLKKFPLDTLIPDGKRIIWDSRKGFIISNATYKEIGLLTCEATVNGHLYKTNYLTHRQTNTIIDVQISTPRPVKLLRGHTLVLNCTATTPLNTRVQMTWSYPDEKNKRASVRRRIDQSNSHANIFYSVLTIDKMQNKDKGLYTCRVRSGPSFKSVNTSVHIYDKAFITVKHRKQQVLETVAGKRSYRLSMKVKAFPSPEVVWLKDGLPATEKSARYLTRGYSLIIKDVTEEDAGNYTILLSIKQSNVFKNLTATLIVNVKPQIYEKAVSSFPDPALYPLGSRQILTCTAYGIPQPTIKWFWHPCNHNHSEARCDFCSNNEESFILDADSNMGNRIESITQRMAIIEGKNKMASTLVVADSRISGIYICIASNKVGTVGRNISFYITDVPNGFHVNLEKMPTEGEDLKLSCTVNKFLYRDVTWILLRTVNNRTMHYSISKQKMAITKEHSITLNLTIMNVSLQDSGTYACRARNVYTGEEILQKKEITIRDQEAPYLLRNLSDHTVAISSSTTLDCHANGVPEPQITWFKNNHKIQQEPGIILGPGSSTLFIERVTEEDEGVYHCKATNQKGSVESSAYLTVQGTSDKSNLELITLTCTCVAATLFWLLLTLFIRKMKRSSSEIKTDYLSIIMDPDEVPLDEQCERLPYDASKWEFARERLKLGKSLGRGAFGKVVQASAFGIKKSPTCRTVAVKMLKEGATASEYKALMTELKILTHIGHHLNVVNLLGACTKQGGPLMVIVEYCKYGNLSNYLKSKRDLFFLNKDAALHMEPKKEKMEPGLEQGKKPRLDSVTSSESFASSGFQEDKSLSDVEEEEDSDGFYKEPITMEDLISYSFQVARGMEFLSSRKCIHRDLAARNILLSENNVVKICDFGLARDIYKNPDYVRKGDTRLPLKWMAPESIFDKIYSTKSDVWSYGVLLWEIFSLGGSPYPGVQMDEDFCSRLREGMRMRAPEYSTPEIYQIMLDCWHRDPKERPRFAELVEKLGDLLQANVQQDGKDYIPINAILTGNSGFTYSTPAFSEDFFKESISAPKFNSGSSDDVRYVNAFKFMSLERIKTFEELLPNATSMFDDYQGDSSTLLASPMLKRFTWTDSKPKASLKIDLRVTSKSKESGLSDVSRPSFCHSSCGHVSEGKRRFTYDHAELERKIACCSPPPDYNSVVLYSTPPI
Sequence of Vascular endothelial growth factor receptor 2 (P35968 whole entry): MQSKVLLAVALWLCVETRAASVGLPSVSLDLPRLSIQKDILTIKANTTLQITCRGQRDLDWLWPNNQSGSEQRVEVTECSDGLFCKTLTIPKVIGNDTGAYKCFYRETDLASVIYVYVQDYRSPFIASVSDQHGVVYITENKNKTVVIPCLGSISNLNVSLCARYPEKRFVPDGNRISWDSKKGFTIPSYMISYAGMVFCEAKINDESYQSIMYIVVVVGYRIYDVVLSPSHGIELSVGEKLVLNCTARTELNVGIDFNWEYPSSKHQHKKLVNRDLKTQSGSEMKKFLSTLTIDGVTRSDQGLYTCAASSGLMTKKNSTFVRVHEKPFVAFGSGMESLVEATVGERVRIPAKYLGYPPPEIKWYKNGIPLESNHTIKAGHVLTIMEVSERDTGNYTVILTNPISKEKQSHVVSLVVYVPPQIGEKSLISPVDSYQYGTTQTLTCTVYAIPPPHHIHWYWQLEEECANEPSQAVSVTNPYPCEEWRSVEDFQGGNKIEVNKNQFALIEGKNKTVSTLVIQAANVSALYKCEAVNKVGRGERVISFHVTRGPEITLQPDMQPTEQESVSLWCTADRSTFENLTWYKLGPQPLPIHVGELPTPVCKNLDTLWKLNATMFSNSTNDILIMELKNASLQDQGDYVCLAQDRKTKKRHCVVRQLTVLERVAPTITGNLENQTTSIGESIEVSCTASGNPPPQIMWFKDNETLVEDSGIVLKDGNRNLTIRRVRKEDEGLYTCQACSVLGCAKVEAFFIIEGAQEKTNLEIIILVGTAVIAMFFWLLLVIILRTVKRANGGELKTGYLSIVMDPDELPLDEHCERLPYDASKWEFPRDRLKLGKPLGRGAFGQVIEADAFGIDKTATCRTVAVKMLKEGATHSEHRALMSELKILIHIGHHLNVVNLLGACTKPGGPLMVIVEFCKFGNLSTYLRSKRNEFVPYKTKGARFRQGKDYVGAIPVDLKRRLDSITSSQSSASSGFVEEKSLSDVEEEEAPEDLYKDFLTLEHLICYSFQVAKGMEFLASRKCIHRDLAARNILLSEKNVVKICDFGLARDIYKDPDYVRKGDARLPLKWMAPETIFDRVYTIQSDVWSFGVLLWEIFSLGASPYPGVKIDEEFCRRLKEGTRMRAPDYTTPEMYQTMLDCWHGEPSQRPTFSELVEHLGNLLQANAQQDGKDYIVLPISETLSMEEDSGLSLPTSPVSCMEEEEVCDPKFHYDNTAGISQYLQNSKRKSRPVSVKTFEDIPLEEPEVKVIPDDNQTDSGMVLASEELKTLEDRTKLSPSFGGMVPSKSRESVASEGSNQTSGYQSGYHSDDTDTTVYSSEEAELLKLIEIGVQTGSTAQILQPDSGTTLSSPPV
Sequence of Platelet-derived growth factor receptor alpha (P16234 whole entry): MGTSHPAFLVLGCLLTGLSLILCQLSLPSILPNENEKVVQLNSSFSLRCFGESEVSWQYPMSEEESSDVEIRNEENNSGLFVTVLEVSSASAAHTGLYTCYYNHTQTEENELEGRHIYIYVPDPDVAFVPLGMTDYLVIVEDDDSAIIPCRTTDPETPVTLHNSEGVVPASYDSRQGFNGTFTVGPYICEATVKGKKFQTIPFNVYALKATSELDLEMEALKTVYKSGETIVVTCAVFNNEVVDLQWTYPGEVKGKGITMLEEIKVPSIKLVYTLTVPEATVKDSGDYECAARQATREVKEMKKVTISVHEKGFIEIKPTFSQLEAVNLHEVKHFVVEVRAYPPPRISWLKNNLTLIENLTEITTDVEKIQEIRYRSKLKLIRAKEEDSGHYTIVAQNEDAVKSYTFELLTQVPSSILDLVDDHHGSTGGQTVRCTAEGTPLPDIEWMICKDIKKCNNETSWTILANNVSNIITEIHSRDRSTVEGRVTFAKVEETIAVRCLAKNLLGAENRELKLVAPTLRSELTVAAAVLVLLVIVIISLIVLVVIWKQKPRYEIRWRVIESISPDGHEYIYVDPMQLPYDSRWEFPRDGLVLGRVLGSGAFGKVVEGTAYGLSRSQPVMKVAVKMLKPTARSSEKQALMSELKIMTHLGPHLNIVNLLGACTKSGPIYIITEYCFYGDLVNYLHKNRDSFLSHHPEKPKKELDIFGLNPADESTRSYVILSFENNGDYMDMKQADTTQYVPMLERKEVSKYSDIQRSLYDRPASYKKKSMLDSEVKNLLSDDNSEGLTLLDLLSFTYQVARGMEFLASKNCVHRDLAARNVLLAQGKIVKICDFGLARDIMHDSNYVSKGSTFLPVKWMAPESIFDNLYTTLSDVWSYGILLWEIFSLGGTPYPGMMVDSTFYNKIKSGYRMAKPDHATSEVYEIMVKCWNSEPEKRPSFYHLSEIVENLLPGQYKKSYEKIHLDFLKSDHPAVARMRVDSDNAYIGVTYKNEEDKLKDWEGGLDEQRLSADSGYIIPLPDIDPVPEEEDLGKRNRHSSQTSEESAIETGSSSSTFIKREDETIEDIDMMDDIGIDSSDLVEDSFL
Sequence of Vascular endothelial growth factor receptor 3 (P35916 whole entry): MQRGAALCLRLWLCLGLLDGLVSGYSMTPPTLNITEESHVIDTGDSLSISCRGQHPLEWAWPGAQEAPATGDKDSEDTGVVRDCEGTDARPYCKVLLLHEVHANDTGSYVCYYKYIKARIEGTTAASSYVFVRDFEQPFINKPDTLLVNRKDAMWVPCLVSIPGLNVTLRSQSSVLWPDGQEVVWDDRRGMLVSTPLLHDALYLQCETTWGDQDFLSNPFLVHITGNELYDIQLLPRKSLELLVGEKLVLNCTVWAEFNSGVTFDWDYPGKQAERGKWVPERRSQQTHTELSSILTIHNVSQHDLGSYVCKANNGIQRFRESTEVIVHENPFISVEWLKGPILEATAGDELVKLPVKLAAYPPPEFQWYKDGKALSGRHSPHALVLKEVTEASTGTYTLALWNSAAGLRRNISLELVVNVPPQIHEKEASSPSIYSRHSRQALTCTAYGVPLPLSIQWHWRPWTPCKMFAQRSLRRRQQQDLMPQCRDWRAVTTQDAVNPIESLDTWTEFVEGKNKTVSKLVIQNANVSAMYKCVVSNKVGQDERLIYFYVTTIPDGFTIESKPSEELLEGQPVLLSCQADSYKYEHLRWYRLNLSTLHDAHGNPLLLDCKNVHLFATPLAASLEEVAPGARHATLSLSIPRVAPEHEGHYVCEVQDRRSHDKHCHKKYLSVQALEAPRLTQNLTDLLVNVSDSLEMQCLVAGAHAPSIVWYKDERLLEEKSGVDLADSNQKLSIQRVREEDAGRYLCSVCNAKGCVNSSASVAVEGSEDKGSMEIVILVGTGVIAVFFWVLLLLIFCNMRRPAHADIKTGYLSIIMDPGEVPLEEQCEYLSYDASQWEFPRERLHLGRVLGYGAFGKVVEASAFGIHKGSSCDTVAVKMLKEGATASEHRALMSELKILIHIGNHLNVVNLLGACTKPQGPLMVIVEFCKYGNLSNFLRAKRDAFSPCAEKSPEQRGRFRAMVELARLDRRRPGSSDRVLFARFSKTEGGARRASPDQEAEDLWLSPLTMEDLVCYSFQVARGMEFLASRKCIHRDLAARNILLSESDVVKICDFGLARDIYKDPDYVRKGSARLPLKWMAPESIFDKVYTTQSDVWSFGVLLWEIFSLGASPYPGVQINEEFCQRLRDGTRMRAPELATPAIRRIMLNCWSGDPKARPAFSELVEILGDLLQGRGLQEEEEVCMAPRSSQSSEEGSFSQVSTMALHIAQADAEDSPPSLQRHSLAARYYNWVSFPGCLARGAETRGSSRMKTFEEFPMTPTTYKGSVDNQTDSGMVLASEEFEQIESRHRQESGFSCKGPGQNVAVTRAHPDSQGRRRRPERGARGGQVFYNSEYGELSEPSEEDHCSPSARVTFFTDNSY
Description for TGF-beta receptor type-1: Inhibition of human recombinant GST-fused ALK5 expressed in Sf9 cells

On to `Cc1cccc(-c2[nH]c(Cc3cccc(C(N)=O)c3)nc2-c2ccc3nccnc3c2)n1`, for which the Stability in [1] was found to be 12.4 peak area; in [2] it was 33.4 peak area; in data set [3], 15.4 peak area; in data set [4] it was 17 peak area.
Molecule `Cc1cccc(-c2[nH]c(Cc3cccc(C#N)c3)nc2-c2ccc3ncccc3c2)n1` came in with a solubility in data set [5] of 7.1 mg/mL (≈ 17.7 mM).
As to `Cc1cccc(-c2nc(Cc3cccc(C(N)=O)c3)[nH]c2-c2ccc3ncccc3c2)n1`, the IC50 in data set [6] stood at 540 nM; in [7] it was 3000 nM; in data set [10], 2100 nM; in data set [11], 940 nM; in data set [13] it was 2200 nM; against TGF-beta receptor type-1, 34 nM. In addition, it took 650 nM to reach half-maximal inhibition in data set [14] (IC50). Moreover, the Stability in data set [8] is 10.6 peak area; in [9], 1.99 peak area; in data set [12], 11.3 peak area. This molecule also displayed a solubility in data set [5] of 14.3 mg/mL (≈ 34.1 mM).
